The values that follow come from patent US11952328B2, “Selective ship inhibitors for treating disease” (THE RESEARCH FOUNDATION FOR THE STATE UNIVERSITY OF NEW YORK, priority 2018, dated 2024).

The test system of test [1] is RMA-Rael cells. The test can be described thus: Overall survival of RMA-Rael tumor challenged hosts (Kaplan-Meier). In kind it is in vivo, mice. The conditions noted are these: C57BL/6 hosts, 1×10^5 RMA-Rael. On the procedure:
FIGS. 6A-6I show the survival of tumor bearing mice treated with a SHIP inhibitor. […] Hosts were treated on the day of tumor challenge and the following day as in FIG. 1. The 2-day treatment course was repeated each week for the duration of survival. […] Mice received either NK cell depleting, anti-NK1.1 antibody (PK136), or isotype control antibody prior to tumor challenge (5×10^5 RMA-Rael). The hosts received SHIP inhibitor two consecutive days each week until death. […] The hosts were treated on the day of tumor challenge and the following day as in FIG. 1. The 2-day treatment course was repeated each week for the duration of survival.
The most clinically relevant endpoint in any cancer therapy study is not a measured decrease in tumor burden, but instead, a significant increase in survival promoted by the treatment.
In order to further define 3AC′s capacity to control malignancy through immunomodulatory effects the capacity of 3AC to promote resistance of NSG, TcRa^−/− and NK cell depleted hosts to RMA-Rael tumor challenge was examined. As before, mice received treatment with 3AC or vehicle for two consecutive days each week followed by a five-day cessation of treatment to prevent disarming and/or exhaustion. This treatment strategy was continued indefinitely and survival was monitored (FIG. 6A). To confirm that, in addition to the chemotherapeutic effect documented in FIG. 5, 3AC-induced enhanced-NK and -T cell activity is important for the survival benefit following tumor challenge, NSG mice (mice deficient of all lymphocyte lineages) were challenged.
To determine if T cells are required for the 3AC-mediated survival benefit, the same expirement using TcRa^−/− hosts that lack a TcR-ab^+ T cell compartment was repeated. […] To directly test the requirement for an intact NK cell compartment for 3AC-mediated increased survival after tumor challenge, the experiment as described in FIG. 6A were repeated challenging C57BL/6 hosts that were first depleted of
NK cells. Here, prior to tumor challenge, hosts were injected with either NK cell depleting anti-NK1.1 antibody (C57BL/6-DNK) or with antibody isotype control (C57BL/6-iso) (FIG. 6B).
The SHIP1 inhibitor 3AC was then tested in a genetic model in which the molecular target, SHIP1, was absent in a key target population of T cells, which are required for protection in the RMA-Rael lymphoma challenge model. […] Thus, SHIP inhibitor protection after tumor challenge is lost when the T cell compartment lacks the molecular target (SHIP1) in T cells.
There are two paralogs of SHIP: SHIP1 which is expressed in a limited range of tissues including hematopoietic cells, and SHIP2 which is expressed by a wide array of cell types. To determine if SHIP2 may also play a role in host defense against malignancy as described above tumor bearing mice were treated with small-molecule inhibitors against SHIP2 as well. […] Stem Cells. (2015); 33: 848-858; Hoekstra, E. et al., Lipid phosphatase SHIP2 functions as oncogene in colorectal cancer by regulating PKB activation. Oncotarget. (2016) 7: 73525-73540). Like 3AC, pan-SHIP1/2 inhibitors such as K118 are also cytotoxic for RMA-Rael cells in vitro. The pan SHIP1/2 inhibitory compounds K118 and K149 were compared to the SHIP1 selective compound 3AC.
Simultaneous inhibition of both SHIP1and SHIP2 may be deleterious to the immune response promoted by 3AC. […] In the study, the SHIP1 selective inhibitor 3AC that provides for protection after RMA-Rael challenge was simulataneously co-administered.

Another test concerns the target T1, SHIP2 (Homo sapiens, UniProt O15357).
T1 sequence (O15357 1-1258): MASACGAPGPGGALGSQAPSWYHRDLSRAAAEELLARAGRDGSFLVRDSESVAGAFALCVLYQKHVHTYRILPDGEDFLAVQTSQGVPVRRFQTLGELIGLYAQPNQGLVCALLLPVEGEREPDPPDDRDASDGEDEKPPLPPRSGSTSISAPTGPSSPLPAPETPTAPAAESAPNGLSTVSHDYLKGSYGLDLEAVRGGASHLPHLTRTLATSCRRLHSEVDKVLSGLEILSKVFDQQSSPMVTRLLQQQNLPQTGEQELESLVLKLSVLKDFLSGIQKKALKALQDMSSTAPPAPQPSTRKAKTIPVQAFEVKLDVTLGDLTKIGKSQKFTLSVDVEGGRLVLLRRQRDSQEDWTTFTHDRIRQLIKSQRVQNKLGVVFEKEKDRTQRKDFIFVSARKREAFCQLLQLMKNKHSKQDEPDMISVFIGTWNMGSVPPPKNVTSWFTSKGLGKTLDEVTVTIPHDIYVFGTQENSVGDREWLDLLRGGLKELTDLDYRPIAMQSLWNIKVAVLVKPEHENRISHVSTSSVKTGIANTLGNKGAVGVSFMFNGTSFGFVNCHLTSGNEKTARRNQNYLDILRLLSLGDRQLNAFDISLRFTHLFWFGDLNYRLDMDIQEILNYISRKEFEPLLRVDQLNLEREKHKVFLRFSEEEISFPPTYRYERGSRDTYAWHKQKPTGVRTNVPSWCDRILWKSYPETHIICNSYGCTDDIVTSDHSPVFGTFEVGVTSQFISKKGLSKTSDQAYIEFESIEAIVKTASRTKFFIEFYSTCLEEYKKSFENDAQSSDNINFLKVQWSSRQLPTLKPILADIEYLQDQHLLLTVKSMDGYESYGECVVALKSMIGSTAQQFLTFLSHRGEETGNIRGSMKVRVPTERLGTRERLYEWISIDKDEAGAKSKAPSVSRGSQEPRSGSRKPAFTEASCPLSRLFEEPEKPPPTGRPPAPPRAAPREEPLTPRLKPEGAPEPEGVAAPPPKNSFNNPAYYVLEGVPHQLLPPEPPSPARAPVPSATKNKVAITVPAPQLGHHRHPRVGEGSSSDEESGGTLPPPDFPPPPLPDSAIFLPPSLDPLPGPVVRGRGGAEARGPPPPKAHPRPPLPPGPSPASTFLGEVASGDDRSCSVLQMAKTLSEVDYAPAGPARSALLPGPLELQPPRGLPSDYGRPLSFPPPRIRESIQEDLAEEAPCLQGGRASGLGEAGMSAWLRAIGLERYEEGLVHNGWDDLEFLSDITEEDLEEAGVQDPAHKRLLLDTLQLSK
The conditions noted are these: Suwa et al. 2009; cited from earlier work.

The test system of a further test is SHIP1/2. The conditions noted are these: Brooks et al. 2015; Hoekstra et al. 2016; cited from earlier work.
Test [2] has as its system RMA-Rael cells. The test is described as follows: RMA-Rael viability following in vitro treatment. Conditions: 24 h, doses given as 5-20 pM, vs solvent only. In kind it is cell-based, mice. From the text:
FIGS. 5A-5I show the effects of SHIP1 inhibitor as a chemotherapeutic. […] FIG. 5D and FIG. 5E show the representative histograms and box-and-whisker plots of FasL expression by NK cells from C56BL/6 (p=0.0002; Unpaired t test with Welch's correction) or RAG1−/− (p<0.0001; Mann-Whitney U test) tumor challenged, SHIP inhibitor or vehicle treated hosts. […] (NK cells p=0.0192; Unpaired t test with Welch's correction. T cells p=0.0659; Mann-Whitney U test). Additionally, FIGS. 5A-5G show the analysis by flow cytometry on day 3 after hosts receive SHIP inhibitor or vehicle for two consecutive days. NK cells are defined as NK1.1+CD3ε−. The graphs are representative of at least two independent experiments with at least four SHIP inhibitor and vehicle treated mice. […] Viability is expressed as frequency at a given concentration expressed as a percentage of solvent only treated cells. The kill curve summarizes pooled data from three independent experiments using six replicate wells/concentration with mean ±SEM indicated (n=18 per group. One-way ANOVA with Dunnett's multiple comparisons. 0 pM vs. 20 pM Adjusted p value =0.0001. 0 pM vs. 15 pM Adjusted p value =0.0001. 0 pM vs. 10 pM Adjusted p value =0.0001. 0 pM vs. 7.5 pM Adjusted p value =0.0001. 0 pM vs. 5 pM Adjusted p value =0.0001). […]

As to `C[C@H](NC(=O)c1sccc1OCc1ccc(Cl)cc1)c1ccccc1` [AS1949490], the “overall survival (protection)” value with RMA-Rael cells [1] (FIG. 6I, alone vs vehicle) is recorded as “no protection”. For the same compound, the “overall survival (effect on protection by 3AC)” value with RMA-Rael cells [1] (FIG. 6I, co-administered with 3AC) is listed as “completely abrogated the protective effect of 3AC”. Further, the “selectivity for SHIP2” value at SHIP2 was “high degree of selectivity”.
For `CSc1ccc2c(c1)c(CCN)c(C)n2Cc1ccc(Cl)cc1.Cl` [Compound K149, 2-[1-(4-chlorobenzyl)-2-methyl-5-(methylmercapto)-1H-3-yl] ethanaminium chloride], the SHIP1/2 inhibitory activity result with SHIP1/2 is “pan-SHIP1/2 inhibitory activity”. Also, in the test on RMA-Rael cells [1] (FIG. 6H, vs vehicle), the “overall survival (protection)” value is reported as “no protection”.
For `C[C@@]12CCC[C@H]1[C@@H]1CC[C@H]3C[C@@H](N)CC[C@]3(C)[C@H]1CC2.Cl` [Compound K118, 3β-amino-5α-androstane hydrochloride], the “RMA-Rael viability (direct killing)” value in the test on RMA-Rael cells [2] is given as “cytotoxic”. Besides, the SHIP1/2 inhibitory activity entry in the test with SHIP1/2 is given as “pan-SHIP1/2 inhibitory activity”. The “overall survival (protection)” value in the test with RMA-Rael cells [1] (FIG. 6H, vs vehicle) is on record as “no protection”.
